# Reference: patent US8609413B2, “Neurons, astrocytes and oligodendrocytes differentiated from a mammalian pluripotent or neural stem cells exposed to a pyridine deriviative” (Research Development Foundation, priority 2007, dated 2013)
# Legend:
# [1] = test system: human ESC-derived NPC / ESC aggregates; assay: Air/liquid interface three-dimensional culture with added factors; type: cell-based; conditions: exogenously added factor
# Description: Air/liquid interface expansion/differentiation of NPC may be performed via the following protocol. One or more rosettes-enriched clusters may be manually removed and multiple clusters (e.g., about 5-10 clusters) may be plated on a hydrophilic polytetrafluoroethylene (PTFE) membrane (e.g., 6 mm diameter, 0.4 μm, BioCell-Interface, La Chaux-de-Fonds, Switzerland). This membrane may be deposited on a Millicell®-CM (0.4 μm) Culture Plate Insert (Millipore) (FIG. 5A). N2 medium may preferably be added (e.g., about 1 ml) underneath the membrane insert.
# Air/liquid interface expansion/differentiation of NPC. Rosettes-enriched cluster were manually removed and 5-10 clusters were plated on a hydrophilic polytetrafluoroethylene (PTFE) membrane (6 mm diameter, 0.4 μm, BioCell-Interface, La Chaux-de-Fonds, Switzerland). This membrane was deposited on a Millicell®-CM (0.4 μm) Culture Plate Insert (Millipore) (FIG. 1). One ml of N2 medium was added underneath the membrane insert.
# mouse ES cells = conditions: literature reports; cited from earlier work
# human ES cells = assay: TWS119 tested by the inventors on human ES cells; type: cell-based
Molecule,phenotype of engineered tissue [1],size of engineered tissue [1],neuronal differentiation of mouse ES cells (mouse ES cells),cell growth (human ES cells),neuronal differentiation (human ES cells)
"FGF-2: basic fibroblast growth factor, exogenously added growth factor",did not induce phenotypic changes,moderate increase,,,
EGF: epidermal growth factor,did not induce phenotypic changes,moderate increase,,,
"Cc1cccc(C#Cc2ccccc2)n1 [MPEP, 2-methyl-6-(phenylethynyl)-pyridine]",,,enhances their differentiation towards neurons,,
Nc1cccc(-c2cc3c(Oc4cccc(O)c4)ncnc3[nH]2)c1 [TWS119],,,enhanced neuronal differentiation of mouse ES cells,decreased cell growth,only small effect on neuronal differentiation
